Experiment [1] concerns rats with streptozotocin-induced diabetes. Kind of experiment: Motor nerve conduction velocity (MNCV) in sciatic nerves of rats with streptozotocin-induced diabetes. The format is in vivo, Slc:Wistar rats. The settings on record: 5 mL/kg of 10 mg/mL drug solution orally once per day for 4 weeks, compared to solvent administration control group. As for the experimental part: The preventative effect of the compounds on the prolongation of latency of the motor nerve conduction velocity (MNCV) were studied in the sciatic nerves of rats with streptozotocin-induced diabetes.
The groups were structured as a non-diabetes control group, a diabetes control group, and a drug administration group. After 8 days of convention rearing, the 8-week male Slc:Wistar rats in the respective groups were given 2 mL/kg of pH 4.5, 0.75 mmol/L citrate buffer solution (non-diabetes control group), or 2 mL/kg of a solution prepared from […] of streptozotocin (chemical name: N-(methylnitrosocarbamoyl)-α-D-glucosamine; manufacturer: SIGMA) in 0.75 mmol/L citrate buffer solution (diabetes control group and drug administration group), single administration in the caudate vein. After 4 more weeks of rearing, the animals in the non-diabetes control group and the diabetes control group were given 5 mL/kg of water for injection, while the animals in the drug administration group were given 5 mL/kg of a drug solution prepared from 10 mg/mL of the drug in water for injection. Administration for all groups was orally once per day for 4 weeks. MNCV measurements were carried out 3 times for each group. […]

Experiment [2] concerns middle cerebral artery occlusion/reperfusion model. The experiment in a line: Middle cerebral artery occlusion/reperfusion model, infarct volume. Type of experiment: in vivo, C57BL/6J mice. The following applies: mice, 90 minutes occlusion; 30 mg/kg via the caudate vein at 3, 24 and 48 hours after occlusion; brains taken 3 days after occlusion/reperfusion. As for the experimental part: A middle cerebral artery occlusion/reperfusion model was prepared by taking 8-week male C57BL/6J mice after 12 days convention rearing, and ligating the left and external common carotid arteries, then recanalizing them after the middle cerebral artery had been occluded for a period of 90 minutes. In this model, the compounds were administered at 3, 24, and 48 hours after occlusion as 30 mg/kg via the caudate vein. The animals were decapitated 3 days after the occlusion/reperfusion, the skulls were cut open from the cerebellar side and the brain was extracted. The extracted brains were fixed with Bouin's solution (pH 3.5-4.0). […] The infarct volumes were then calculated as shown below.
Optical microscope: digital images were taken using an optical microscope (object lens×1) that was fitted with a camera (MCD-350, Olympus). […] Based on the images pasted into the page mounts, the infarct areas (S, mm^2), lateral (left) infarct areas (mm^2) and lateral (right) non-infarct areas (MR, mm^2) were measured using an image analysis system (Win ROOF v. 5.6, Mitani), and the non-infarct areas for the left-side infarcts (ML, mm^2) [lateral (left) infarct area (mm^2)−infarct area (mm^2)] were calculated.
Using the equations below, the infarct volumes (SV, mm^3), non-infarct volumes for the left-side infarcts (MLV, mm^3), and the lateral (right) non-infarct volumes (MRV, mm^3) were calculated. […]

In experiment [3] the test system is activity of 200 ng/mL of NGF (NXF promoter-driven luciferase in PC12 cells). The experiment in a line: Luciferase reporter assay (NXF promoter) in PC12 cells: potentiation of NGF activity. The format is cell-based, rat. The arrangement: key: +: Showed relatively weak potentiation (potentiation only exhibited at 10 μM); ++: Showed potentiation; +++: Showed particularly strong potentiation (2-fold or greater potentiation of the activity of 200 ng/mL of NGF at 1 μM). As for the experimental part: The forward primer 5′-[…]-3′ and the reverse primer 5′-[…]-3′ were prepared as the PCR primers according to the sequence information for the NXF gene genome sequence (Accession Nos. AB054577 and NC—000085), and the PCR method was used to isolate from approximately 5 kbp upstream from the translated region of the NXF gene promoter portion to the vicinity of the transcription start site. For this, 1 μg of mouse genomic DNA (Takara) was used as the template, and the 2-step PCR reaction was carried out for 35 cycles, the conditions for which were 95° C./1 m in the denaturing step, and 68° C./8 m in the annealing and extension steps, to obtain the PCR product. The NXF promoter fragment was inserted into the SmaI site of the pGL3 Basic vector (Promega) in the upstream of luciferase gene to prepare a reporter plasmid that would express the luciferase enzyme driven by the NXF promoter.
PC12 cells (available from the ATCC) were cultured using RPMI medium (GIBCO-BRL) with 5% FCS (GIBCO-BR) and 15% horse serum (GIBCO-BRL) added, and 1 mM in sodium pyruvate (GIBCO-BRL), at 37° C. in the presence of 5% CO2. After transfection in 10^6 of these PC12 cells for 2 days with 12 μg of the above-described reporter plasmid and 1 μg of pRC/RSV vector (Invitrogen) using the Lipofectamine 2000 reagent (Invitrogen), the medium was exchanged for fresh medium containing 40 mg/L of geneticin sulfate (GIBCO), and this was cultured continuously. Culturing was continued for approximately 1 month with medium exchange of the cultured medium containing 40 mg/L of geneticin sulfate (GIBCO) every several days, with the result that multiple colonies of the obtained cells were picked up. Among these, one of the colonies that induced luciferase activity in the presence of 40 ng/mL of NGF (Wako Pure Chemicals) was selected and used for the cells to evaluate the activity of the compounds below.
These cells were set up in 96-well plates with 80% confluence, and the luciferase reporter assay was conducted using the Promega Steady Glo luciferase assay kit. The procedure was carried out overnight (approx. 16 hours) using culture medium containing the compound, and the Steady Glo substrate solution was added to the cells in half-diluted in PBS after removal of all remaining medium containing the compound. After this was allowed to stand for 30 minutes, the respective quantity of light produced was measured with a luminometer (Envision Perkin Elmer).
The activity of the compounds for evaluation was measured as the potentiation of the activity of 200 ng/mL of NGF. For the experiment control wells, the negative control well had medium containing only a final concentration of 0.1% DMSO, the positive control well had medium containing a saturation concentration of NGF. In addition, a test well was set up containing 0.1% DMSO with 200 ng/mL of NGF added corresponding to a 0 compound concentration. When its luciferase activity was taken as a standard, the relative luciferase activity could be calculated for the test wells to which the compound solution (dissolved in DMSO and prepared to have a final DMSO concentration of 0.1%) had been added in addition to the 200 ng/mL of NGF, to find the potentiation of the activity of 200 ng/mL of NGF due to that compound.
For orientation: Reporter assays use an easily measured gene product as a stand-in for the process of interest.

The mark [4] stands for this setting: Test Example 4, same manner as Test Example 1, relative luciferase activity vs 200 ng/mL NGF alone.

In the case of `Cc1nc2cc(-c3nc4ccccc4o3)ccc2n1C1CCOCC1` [Ex. 12, 5-(benzoxazol-2-yl)-2-methyl-1-(tetrahydropyran-4-yl)benzimidazole methanesulfonate], in experiment [1], the “motor nerve conduction velocity (MNCV)” value is “recovery of motor nerve conduction velocity was observed”. Moreover, the infarct volume result in experiment [2] is on record as “reductions in the infarct volumes were confirmed”.
On to `Cc1nc2cc(-c3nc4ccccc4o3)ccc2n1C(CO)c1ccccc1` (centres unmarked) [Ex. 120, 5-(1-benzoxazol-2-yl)-1-(2-phenylethanol-2-yl)-2-methylbenzimidazole], for which the “Activity (potentiation of NGF activity)” value in experiment [3] (setting [4]) is on record as “++”.
Still for that read-out and setting: with `Cc1nc2cc(-c3nc4ccccc4o3)ccc2n1CC(C)C(=O)OC(C)(C)C` (centres unmarked) [Ex. 121, 5-(benzoxazol-2-yl)-2-methyl-1-(2-tert-butoxycarbonyl-n-propyl)benzimidazole] the entry was “++”.
The same measure, in the same setting: with `Clc1ccccc1-c1nc2cc(-c3nc4ccccc4o3)ccc2n1C1CCOCC1` [Ex. 126, 5-(benzoxazol-2-yl)-2-(2-chlorophenyl)-1-(tetrahydropyran-4-yl)benzimidazole] the entry was “++”.
`Cc1nc2cc(-c3nc4ccccc4o3)ccc2n1CCN(C)C` [Ex. 130]: in experiment [3] (setting [4]), the “Activity (potentiation of NGF activity)” value is on record as “++”.
On to `Cc1nc2cc(-c3nc4ccccc4o3)ccc2n1CCS(C)(=O)=O` [Ex. 132, 5-(benzoxazol-2-yl)-1-(2-(methylsulfonyl)ethyl)-2-methylbenzimidazole], for which, in experiment [3] (setting [4]), the “Activity (potentiation of NGF activity)” value was “++”.
On the same count and under the same terms, with `CSCCc1nc2cc(-c3nc4ccccc4o3)ccc2n1C1CCOCC1` [Ex. 133, 5-(benzoxazol-2-yl)-2-(2-(methylthio)ethyl)-1-(tetrahydropyran-4-yl)benzimidazole] the entry was “++”; with `CS(=O)(=O)CCc1nc2cc(-c3nc4ccccc4o3)ccc2n1C1CCOCC1` [Ex. 134, 5-(benzoxazol-2-yl)-2-(2-(methylsulfonyl)ethyl)-1-(tetrahydropyran-4-yl)benzimidazole], “++”.
With `CCCn1cnc2cc(-c3nc4cc(Cl)ccc4o3)ccc21` [Ex. 135, 5-(5-chlorobenzoxazol-2-yl)-1-n-propylbenzimidazole], the “Activity (potentiation of NGF activity)” value in experiment [3] (setting [4]) was “++”.
In the case of `Cc1nc2cc(-c3nc4ccccc4o3)ccc2n1-c1ccccc1` [Syn. Ex. 3, 5-(benzoxazol-2-yl)-2-methyl-1-phenylbenzimidazole], the “Activity (potentiation of NGF activity)” value in experiment [3] (Test Example 1, relative luciferase activity vs 200 ng/mL NGF alone, overnight (approx. 16 hours)) is “++”.

For the origin of these results see US8829035B2, “Agent for treatment or prevention of diseases associated with activity of neurotrophic factors” (Sumitomo Chemical Company, Limited, priority 2009, dated 2014).
